Reference: ChEMBL document CHEMBL4725294, “Centrally Active Multitarget Anti-Alzheimer Agents Derived from the Antioxidant Lead CR-6” (J Med Chem, 2020)
The source made the active and inactive calls. The rule behind the calls is not given here.

Tests used:
[1] = Acute toxicity in C57BL6/J mouse at 5 to 10 mg/kg, ip measured up to 24 hrs; assay type: organism-based; conditions: in vivo, dose 5-10 mg/kg
[2] = Acute toxicity in C57BL6/J mouse assessed as ptosis at 15 mg/kg, ip measured after 5 mins; assay type: organism-based; conditions: in vivo
Mus musculus [3] = experiment: Antialzheimer activity in APP/PS1 double mutant-transgenic C57BL6/J mouse model assessed as reduction in soluble amyloid beta 42 level in cortex at 10 mg/kg/day, ip for 4 weeks followed by compound washout and measured after 24 hrs by ELISA; assay type: functional, organism-based
[4] = Drug metabolism in human liver microsomes assessed as N-[8-[(6-chloro-1,2,3,4-tetrahydroacridin-9-yl)amino]octyl]-2-(8-methoxy-2-methyl-6,9-dioxo-1-oxaspiro[4.5]dec-7-en-2-yl)acetamide formation at 5 uM measured up to 60 mins by UPLC-MS/MS analysis; assay type: ADME, Microsome; conditions: 1 h
Mus musculus [5] = experiment: Antialzheimer activity in APP/PS1 double mutant-transgenic C57BL6/J mouse model assessed as reduction in Bace1 gene expression at 10 mg/kg/day, ip for 4 weeks followed by compound washout and measured after 24 hrs by qPCR analysis; assay type: functional, organism-based
in vitro = conditions: PAMPA
Description: Permeability of compound in PBS/EtOH buffer (7:3) PAMPA-BBB assay

[6] = Stability in mouse plasma assessed as parent compound remaining at 10 uM measured after 60 mins by UPLC-MS/MS analysis; assay type: ADME, cell-free; conditions: read-out: Stabilty
[7] = Drug metabolism in mouse liver microsomes assessed as 6-chloro-1,2,3,4-tetrahydroacridin-9-amine formation at 5 uM measured up to 60 mins by UPLC-MS/MS analysis; assay type: ADME, Microsome; conditions: 1 h
[8] = Stability in rat plasma assessed as parent compound remaining at 10 uM measured after 360 mins by UPLC-MS/MS analysis; assay type: ADME, cell-free; conditions: read-out: Stabilty
[9] = Intrinsic clearance in human liver microsomes assessed per mg protein at 5 uM by UPLC-MS/MS analysis; assay type: ADME, Microsome; conditions: read-out: CLH
[10] = Drug metabolism in mouse liver microsomes assessed as N-[8-[(6-chloro-1,2,3,4-tetrahydroacridin-9-yl)amino]octyl]-2-(8-methoxy-2-methyl-6,9-dioxo-1-oxaspiro[4.5]dec-7-en-2-yl)acetamide formation at 5 uM measured up to 60 mins by UPLC-MS/MS analysis; assay type: ADME, Microsome; conditions: 1 h
Mus musculus [11] = experiment: Antialzheimer activity in APP/PS1 double mutant-transgenic C57BL6/J mouse model assessed as effect on iNOS gene expression at 10 mg/kg/day, ip for 4 weeks followed by compound washout and measured after 24 hrs by qPCR analysis; assay type: functional, organism-based
Cholinesterase = Cholinesterase (Homo sapiens, UniProt P06276)
Description: Inhibition of recombinant human BChE using butyrylthiocholine iodide as substrate preincubated for 15 mins followed by substrate addition by Ellman's method

Mus musculus [12] = experiment: Antialzheimer activity in APP/PS1 double mutant-transgenic C57BL6/J mouse model assessed as reduction in oxidized protein level at 10 mg/kg/day, ip for 4 weeks followed by compound washout and measured after 24 hrs by Western blot analysis; assay type: functional, organism-based
Mus musculus [13] = experiment: Antialzheimer activity in APP/PS1 double mutant-transgenic C57BL6/J mouse model assessed as reduction in amyloid beta burden in cortex at 10 mg/kg/day, ip for 4 weeks followed by compound washout and measured after 24 hrs by hematoxylin staining based microscopic analysis; assay type: functional, organism-based
Mus musculus [14] = experiment: Antialzheimer activity in APP/PS1 double mutant-transgenic C57BL6/J mouse model assessed as reduction in soluble amyloid beta 40 level in cortex at 10 mg/kg/day, ip for 4 weeks followed by compound washout and measured after 24 hrs by ELISA; assay type: functional, organism-based
[15] = Acute toxicity in C57BL6/J mouse at 15 mg/kg, ip measured after 3 hrs; assay type: organism-based; conditions: in vivo
[16] = Stability in human plasma assessed as parent compound remaining at 10 uM measured after 360 mins by UPLC-MS/MS analysis; assay type: ADME, cell-free; conditions: read-out: Stabilty

Sequence of Cholinesterase (P06276 whole entry): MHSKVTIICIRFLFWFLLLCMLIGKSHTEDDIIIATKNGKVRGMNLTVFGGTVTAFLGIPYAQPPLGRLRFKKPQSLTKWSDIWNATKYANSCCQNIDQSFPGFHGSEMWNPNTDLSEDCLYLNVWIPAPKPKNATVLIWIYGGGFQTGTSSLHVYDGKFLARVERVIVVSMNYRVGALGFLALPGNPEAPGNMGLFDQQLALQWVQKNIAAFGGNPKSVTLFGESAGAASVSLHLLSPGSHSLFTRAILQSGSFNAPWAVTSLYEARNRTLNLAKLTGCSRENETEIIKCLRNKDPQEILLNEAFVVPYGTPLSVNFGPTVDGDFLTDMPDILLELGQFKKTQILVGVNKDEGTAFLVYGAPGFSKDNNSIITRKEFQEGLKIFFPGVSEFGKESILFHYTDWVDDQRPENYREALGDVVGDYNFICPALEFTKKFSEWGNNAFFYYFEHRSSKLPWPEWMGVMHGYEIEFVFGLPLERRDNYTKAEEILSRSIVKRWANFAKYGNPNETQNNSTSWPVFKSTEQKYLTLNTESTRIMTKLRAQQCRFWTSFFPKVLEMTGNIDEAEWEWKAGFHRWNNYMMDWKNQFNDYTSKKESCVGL

**Q.** With `COc1cc2c(cc1O)CCC(C)(CC(=O)NCCCCCCCCNc1c3c(nc4cc(Cl)ccc14)CCCC3)O2` (stereo not drawn) as the molecule, how does the Activity [1] read?
**A.** Non-Toxic

**Q.** What about the Activity [2] of the same molecule?
**A.** Toxic

**Q.** And the Activity (Mus musculus [3])?
**A.** inactive

**Q.** And the Drug metabolism [4]?
**A.** Metabolite_Detected

**Q.** And the Activity (Mus musculus [5])?
**A.** Active

**Q.** And the Papp (in vitro)?
**A.** 9.6 ×10⁻⁶ cm/s

**Q.** What about the remaining at 1 h, 10 µM [6] of the same molecule?
**A.** 100%

**Q.** And the Drug metabolism [7]?
**A.** Metabolite_Detected

**Q.** And the remaining at 6 h, 10 µM [8]?
**A.** 98%

**Q.** What about the microsomal CLint at 5 µM [9] of the same molecule?
**A.** 55.2 µL/min/mg

**Q.** What about the Drug metabolism [10] of the same molecule?
**A.** Metabolite_Detected

**Q.** What about the Activity (Mus musculus [11]) of the same molecule?
**A.** inactive

**Q.** And the IC50 (Cholinesterase)?
**A.** 0.17 µM

**Q.** And the Activity (Mus musculus [12])?
**A.** inactive

**Q.** What about the Activity (Mus musculus [13]) of the same molecule?
**A.** inactive

**Q.** And the Activity (Mus musculus [14])?
**A.** inactive

**Q.** And the Activity [15]?
**A.** Non-Toxic

**Q.** What about the remaining at 6 h, 10 µM [16] of the same molecule?
**A.** 100%
